Measured values as given in the NIST ThermoML archive (doi:10.1016/j.jct.2016.07.032).
± gives the expanded uncertainty stated by the source.

Experiments:
[1] = 101.3 kPa, Liquid; for speed of sound: Frequency=3 MHz, Sing-around technique in a fixed-path interferometer; for mass density: Vibrating tube method
[2] = refractive index (Na D-line) (dimensionless); conditions: 101.3 kPa, Liquid, Standard Abbe refractometry
[3] = xn = mol fraction of the nth substance listed; conditions: 101.3 kPa, Liquid, x2 = 0; for speed of sound: Frequency=3 MHz, Sing-around technique in a fixed-path interferometer; for mass density: Vibrating tube method
[4] = refractive index (Na D-line) (dimensionless); xn = mol fraction of the nth substance listed; conditions: 101.3 kPa, Liquid, Standard Abbe refractometry, x2 = 0

SMILES	speed of sound ([1]; 298 K) [m/s]	mass density ([1]; 298 K) [kg/m3]	speed of sound ([1]; 303 K) [m/s]	mass density ([1]; 303 K) [kg/m3]	speed of sound ([1]; 308 K) [m/s]	mass density ([1]; 308 K) [kg/m3]	refractive index ([2]; 298 K)	refractive index ([2]; 303 K)	refractive index ([2]; 308 K)	speed of sound ([3]; 298 K) [m/s]	mass density ([3]; 298 K) [kg/m3]	speed of sound ([3]; 303 K) [m/s]	mass density ([3]; 303 K) [kg/m3]	speed of sound ([3]; 308 K) [m/s]	mass density ([3]; 308 K) [kg/m3]	refractive index ([4]; 298 K)	refractive index ([4]; 303 K)	refractive index ([4]; 308 K)
CN1CCCC1=O [N-methylpyrrolidone]	1546 ± 2	1026 ± 2	1526 ± 2	1022 ± 2	1507 ± 2	1018 ± 2	1.467 ± 0.002	1.466 ± 0.002	1.464 ± 0.002									
CN1CCCC1=O [N-methylpyrrolidone] + CCOc1ccccc1										1546 ± 2	1026 ± 2	1526 ± 2	1022 ± 2	1507 ± 2	1018 ± 2	1.467 ± 0.002	1.466 ± 0.002	1.464 ± 0.002
CN(C)C=O [dimethylformamide]	1457 ± 2	944 ± 2	1437 ± 2	939 ± 2	1420 ± 2	935 ± 2	1.429 ± 0.002	1.427 ± 0.002	1.425 ± 0.002									
CN(C)C=O [dimethylformamide] + CCOc1ccccc1										1457 ± 2	944 ± 2	1437 ± 2	939 ± 2	1420 ± 2	935 ± 2	1.429 ± 0.002	1.427 ± 0.002	1.425 ± 0.002
CCOc1ccccc1 [ethoxybenzene]	1369 ± 2	960 ± 2	1349 ± 2	955 ± 2	1329 ± 2	951 ± 2	1.505 ± 0.002	1.503 ± 0.002	1.499 ± 0.002									
C1CCOC1 [tetrahydrofuran]	1278 ± 2	882 ± 2	1254 ± 2	878 ± 2	1230 ± 2	874 ± 2	1.405 ± 0.002	1.403 ± 0.002	1.4 ± 0.002									
C1CCOC1 [tetrahydrofuran] + CCOc1ccccc1										1278 ± 2	882 ± 2	1254 ± 2	878 ± 2	1230 ± 2	874 ± 2	1.405 ± 0.002	1.403 ± 0.002	1.4 ± 0.002
